According to PubChem BioAssay AID652101 (NMMLSC, 2013):

Tested on: TALL-104 lytic granule exocytosis, LAMP-1 flow cytometry
Test: potency against LAMP-1 externalization in TALL-104 – TALL-104 cells, flow cytometry, CherryPick01, dose response (AID 652101)
Details: stimulated with 1 µM thapsigargin, 50 nM PMA

EC50 [µM] | Compound
5.2 | O=C(Cn1sc2ccccc2c1=O)Nc1ccc(F)cc1
2.22 | c1ccc(CNc2nc(NCC3CC3)nc3cc(-c4ccccc4)sc23)cc1
3.99 | CCCCn1c(=N)n(CC(=O)c2ccc(Br)s2)c2ccccc21
6.16 | CN1CCN(Cc2nc3ccccc3c(=O)n2Cc2nc(-c3ccc([N+](=O)[O-])cc3)cs2)CC1
5.17 | CCc1ccc(/C=C2/Sc3ccccc3N(CC(=O)NCCCN3CCOCC3)C2=O)cc1
4.61 | O=C(CN1C(=O)/C(=C\c2cccc(Br)c2)Oc2ccccc21)NCCCN1CCOCC1
4.47 | Cc1cc(C)c2nc(C)cc(N/N=C/c3ccc(O)cc3)c2c1
6.27 | COC(=O)c1c(NC(=O)c2nc3ccccc3s2)sc2c1CC(C)(C)NC2(C)C
4.83 | COc1cccc(NC(=O)Nc2nc(-c3ccc(OC)c(OC)c3)cs2)c1
7.71 | CCCCCCSc1cccc(-c2nc3ccccn3c2NCc2ccccc2)c1
4.7 | Cc1ccc(Nc2nc(NCc3ccco3)c3ccccc3n2)cc1
3.44 | CCOC(=O)c1cc(-c2csc(Nc3c(C)cc(C)cc3C)n2)on1
1.68 | CC1=NOC(=O)/C1=C/c1ccc(-c2ccc(Cl)cc2)o1
3.23 | CN1Cc2c(N3CCOCC3)nc3sc(C(=O)c4ccc(Br)cc4)c(N)c3c2CC1(C)C
0.897 | COc1ccc(N2C(=O)CC(Sc3nnc(-c4ccccc4)o3)C2=O)cc1 (stereo not drawn)
6.14 | CCOc1ccc2nc(C)cc(Nc3cccc([N+](=O)[O-])c3)c2c1
9.73 | CCCCC[C@@H](C)N1C[C@@H](COCc2ccccc2)Oc2cc(N3CC[C@H](N(C)C)C3)ccc2S1(=O)=O

EC50 [µM] | Compound
1.24 | O=C(OCc1ccccc1)N(CCCCN(CCCNCc1ccccc1)C(=O)OCc1ccccc1)CCCNCc1ccccc1
1.61 | CC1COCC(C)N1C1=C(Cl)C(=O)c2ccccc2C1=O (stereo not drawn)
2.91 | O=S(=O)(Nc1cc(Sc2ncn[nH]2)c(O)c2ccccc12)c1ccccc1
1.33 | COc1cccc(N2CCN(c3ncnc4c3[nH]c3ccc(F)cc34)CC2C)c1 (stereo not drawn)
4.22 | O=S(=O)(c1ccccc1)c1nnn2c1nc(NC1CCN(Cc3ccccc3)CC1)c1cc(Cl)ccc12
3.38 | CCCS(=O)(=O)Nc1ccc(Nc2c3ccccc3nc3ccccc23)c(OC)c1
4.98 | COc1cccc(-c2cnc3c(NC(C)=O)cc(-c4ccsc4)cn23)c1
3.82 | N#Cc1c(Nc2ccccc2Cl)s[nH]c1=O
3.13 | O=C1Nc2ccc(Br)cc2/C1=C/C(=O)c1ccccc1
5.34 | COc1ccccc1CNc1nc(NCc2ccc(C(C)C)cc2)c2sccc2n1
0.289 | O=C1CC(Sc2nnnn2-c2ccccc2)C(=O)N1c1cccc(Cl)c1 (stereo not drawn)
5.13 | O=C(Cn1sc2ccccc2c1=O)NC12CC3CC(CC(C3)C1)C2
5.02 | O=C1C=CC(=O)N1N(c1ccccc1)c1ccccc1
4.23 | COc1ccccc1CNc1nc(NCc2ccc3occc3c2)c2sccc2n1
2.35 | CCN(CC)CCCNc1ccc(-c2nnc(-c3ccc(OCC(C)C)cc3)o2)cn1
1.66 | Fc1ccc(/C=C\c2nccc3c2[nH]c2ccccc23)cc1
